Laboratory results published in PubChem BioAssay AID1745844 (Carcinogenic Potency Database (CPDB), 2022).
Values joined by “and” are separate entries in the source; they are usually repeats but may differ in a detail not shown here. Equal entries are not always repeated. Active and inactive are the calls of the source. How the calls were made is not given here.

Test system: rodent lifetime carcinogenesis bioassay, tumor incidence TD50
Assay: carcinogenic potency in animals, long-term in vivo studies, CPDB compilation (AID 1745844)

NNC(=O)c1ccncc1
TD50 (hamster, strain Syrian Golden, females, in drinking water, site: forestomach, lesion: papilloma, dosed 121 weeks, study length 121 weeks): 575 mg/kg/day (inactive)
carcinogen call (hamster, strain Syrian Golden, males, in drinking water, site: liver, lesion: hemangioma, dosed 130 weeks, study length 130 weeks): negative (inactive)
TD50 (mouse, strain A, males, by gavage, site: liver, lesion: carcinoma, dosed 79 weeks, study length 79 weeks): 159 mg/kg/day
TD50 (mouse, strain A, males, by gavage, site: lung, lesion: carcinoma, dosed 79 weeks, study length 79 weeks): 206 mg/kg/day
TD50 (mouse, strain A, males, by gavage, site: several sites, sites named in the paper, lesion: carcinoma, dosed 79 weeks, study length 79 weeks): 219 mg/kg/day
TD50 (mouse, strain AKR, females, in drinking water, site: lung, lesion: one or several types, types not named, dosed 70 weeks, study length 70 weeks): 89.6 mg/kg/day (inactive)
carcinogen call (mouse, strain AKR, males, in drinking water, site: liver, lesion: hemangioma, dosed 59 weeks, study length 59 weeks): negative (inactive)
TD50 (mouse, strain AKR, males, in drinking water, site: lung, lesion: one or several types, types not named, dosed 59 weeks, study length 59 weeks): 202 mg/kg/day (inactive)
TD50 (mouse, strain C3H (MTV+), females, in drinking water, site: lung, lesion: adenoma, dosed 72 weeks, study length 72 weeks): 755 mg/kg/day
TD50 (mouse, strain C3H (MTV+), males, in drinking water, site: lung, lesion: adenoma, dosed 72 weeks, study length 72 weeks): 219 mg/kg/day
TD50 (mouse, strain CBA/Cb/Se, females, by gavage, site: liver, lesion: hepatoma, dosed 36 weeks, study length 84 weeks): 187 mg/kg/day (inactive)
TD50 (mouse, strain CBA/Cb/Se, females, by gavage, site: lung, lesion: several types, types named in the paper, dosed 36 weeks, study length 84 weeks): 11.2 mg/kg/day
TD50 (mouse, strain CBA/Cb/Se, males, by gavage, site: liver, lesion: hepatoma, dosed 36 weeks, study length 74 weeks): 165 mg/kg/day (inactive)
TD50 (mouse, strain CBA/Cb/Se, males, by gavage, site: lung, lesion: several types, types named in the paper, dosed 36 weeks, study length 74 weeks): 12.2 mg/kg/day
TD50 (mouse, strain Not specified, both sexes, by gavage, site: any site (literature study), lesion: several types, types named in the paper, dosed 52 weeks, study length 52 weeks): 14.1 mg/kg/day
TD50 (mouse, strain Not specified, both sexes, by gavage, site: lung, lesion: adenoma, dosed 52 weeks, study length 52 weeks): 19.3 mg/kg/day
TD50 (mouse, strain Not specified, both sexes, by gavage, site: mammary gland, lesion: adenocarcinoma, dosed 52 weeks, study length 52 weeks): 80.9 mg/kg/day
carcinogen call (mouse, strain Swiss albino, females, in drinking water, site: liver, lesion: hemangioma, dosed 80 weeks, study length 80 weeks): negative (inactive)
carcinogen call (mouse, strain Swiss albino, females, in drinking water, site: liver, lesion: hemangioma, dosed 101 weeks, study length 106 weeks): negative (inactive)
TD50 (mouse, strain Swiss albino, females, in drinking water, site: lung, lesion: adenocarcinoma, dosed 80 weeks, study length 80 weeks): 435 mg/kg/day
TD50 (mouse, strain Swiss albino, females, in drinking water, site: lung, lesion: adenoma, dosed 80 weeks, study length 80 weeks): 189 mg/kg/day
TD50 (mouse, strain Swiss albino, females, in drinking water, site: lung, lesion: adenoma, dosed 101 weeks, study length 106 weeks): 386 mg/kg/day
TD50 (mouse, strain Swiss albino, females, in drinking water, site: lung, lesion: several types, types named in the paper, dosed 80 weeks, study length 80 weeks): 153 mg/kg/day
carcinogen call (mouse, strain Swiss albino, males, in drinking water, site: liver, lesion: hemangioma, dosed 80 weeks, study length 80 weeks): negative (inactive)
TD50 (mouse, strain Swiss albino, males, in drinking water, site: lung, lesion: adenoma, dosed 80 weeks, study length 80 weeks): 124 mg/kg/day
TD50 (mouse, strain Swiss albino, males, in drinking water, site: lung, lesion: adenoma, dosed 86 weeks, study length 87 weeks): 104 mg/kg/day
TD50 (mouse, strain Swiss, both sexes, by gavage, site: lung, lesion: adenocarcinoma, dosed 95 weeks, study length 95 weeks): 28.8 mg/kg/day
TD50 (mouse, strain Swiss, both sexes, by gavage, site: lung, lesion: one or several types, types not named, dosed 97 weeks, study length 97 weeks): 24.5 mg/kg/day
TD50 (mouse, strain Swiss, females, by gavage, site: liver, lesion: carcinoma, dosed 81 weeks, study length 83 weeks): 88.6 mg/kg/day
TD50 (mouse, strain Swiss, females, by gavage, site: lung, lesion: carcinoma, dosed 81 weeks, study length 83 weeks): 88.6 mg/kg/day
TD50 (mouse, strain Swiss, females, by gavage, site: lung, lesion: carcinoma, dosed 83 weeks, study length 83 weeks): 53.1 mg/kg/day
TD50 (mouse, strain Swiss, females, by gavage, site: several sites, sites named in the paper, lesion: carcinoma, dosed 81 weeks, study length 83 weeks): 39.9 mg/kg/day
TD50 (mouse, strain Swiss, females, by gavage, site: several sites, sites named in the paper, lesion: carcinoma, dosed 83 weeks, study length 83 weeks): 53.1 mg/kg/day
TD50 (mouse, strain Swiss, males, by gavage, site: liver, lesion: carcinoma, dosed 79 weeks, study length 79 weeks): 88.8 mg/kg/day and 71.3 mg/kg/day
TD50 (mouse, strain Swiss, males, by gavage, site: liver, lesion: carcinoma, dosed 85 weeks, study length 85 weeks): 211 mg/kg/day
TD50 (mouse, strain Swiss, males, by gavage, site: lung, lesion: carcinoma, dosed 79 weeks, study length 79 weeks): 41.1 mg/kg/day and 39.2 mg/kg/day
TD50 (mouse, strain Swiss, males, by gavage, site: lung, lesion: carcinoma, dosed 85 weeks, study length 85 weeks): 28.9 mg/kg/day
TD50 (mouse, strain Swiss, males, by gavage, site: several sites, sites named in the paper, lesion: carcinoma, dosed 79 weeks, study length 79 weeks): 25.7 mg/kg/day and 21.2 mg/kg/day
TD50 (mouse, strain Swiss, males, by gavage, site: several sites, sites named in the paper, lesion: carcinoma, dosed 85 weeks, study length 85 weeks): 24 mg/kg/day
TD50 (rat, strain Cb/Sc, females, in drinking water, site: mammary gland, lesion: fibroadenoma, dosed 48 weeks, study length 64 weeks): 120 mg/kg/day
TD50 (rat, strain Cb/Sc, males, in drinking water, site: liver, lesion: one or several types, types not named, dosed 48 weeks, study length 84 weeks): 199 mg/kg/day
TD50 (rat, strain Cb/Sc, males, in drinking water, site: lung, lesion: several types, types named in the paper, dosed 48 weeks, study length 84 weeks): 1070 mg/kg/day

CCC(CC)[N+](=O)[O-]
TD50 (rat, strain Fischer 344, males, by gavage, site: liver, lesion: hepatocellular carcinoma, dosed 50 weeks, study length 83 weeks): 3.05 mg/kg/day
TD50 (rat, strain Fischer 344, males, by gavage, site: liver, lesion: several types, types named in the paper, dosed 50 weeks, study length 83 weeks): 2.37 mg/kg/day

NC(=O)c1cccnc1
carcinogen call (mouse, strain Swiss albino, females, in drinking water, site: lung, lesion: several types, types named in the paper, dosed 113 weeks, study length 113 weeks): negative (inactive)
carcinogen call (mouse, strain Swiss albino, males, in drinking water, site: lung, lesion: several types, types named in the paper, dosed 109 weeks, study length 109 weeks): negative (inactive)

CC1=CC(=O)CC(C)(C)C1
carcinogen call (mouse, strain B6C3F1, females, by gavage, site: any site (literature study), lesion: several types, types named in the paper, dosed 103 weeks, study length 104 weeks): negative (inactive)
TD50 (mouse, strain B6C3F1, females, by gavage, site: liver, lesion: hepatocellular adenoma + hepatocellular carcinoma + neoplastic nodule, dosed 103 weeks, study length 104 weeks): 2740 mg/kg/day
TD50 (mouse, strain B6C3F1, males, by gavage, site: all sites, lesion: leukemia, NOS + malignant lymphoma, histiocytic type + malignant lymphoma, mixed type + malignant lymphoma, lymphocytic type, dosed 103 weeks, study length 104 weeks): 236 mg/kg/day
TD50 (mouse, strain B6C3F1, males, by gavage, site: all sites, lesion: malignant lymphoma, histiocytic type + malignant lymphoma, mixed type + malignant lymphoma, lymphocytic type, dosed 103 weeks, study length 104 weeks): 203 mg/kg/day
TD50 (mouse, strain B6C3F1, males, by gavage, site: all sites, lesion: malignant lymphoma, histiocytic type, dosed 103 weeks, study length 104 weeks): 244 mg/kg/day
TD50 (mouse, strain B6C3F1, males, by gavage, site: liver, lesion: hepatocellular adenoma + hepatocellular carcinoma + neoplastic nodule, dosed 103 weeks, study length 104 weeks): 573 mg/kg/day
TD50 (mouse, strain B6C3F1, males, by gavage, site: liver, lesion: hepatocellular adenoma + hepatocellular carcinoma, dosed 103 weeks, study length 104 weeks): 573 mg/kg/day
TD50 (mouse, strain B6C3F1, males, by gavage, site: skin + subcutaneous tissue, lesion: fibroma + fibrosarcoma, dosed 103 weeks, study length 104 weeks): 840 mg/kg/day
TD50 (mouse, strain B6C3F1, males, by gavage, site: skin + subcutaneous tissue, lesion: fibroma + neurofibrosarcoma + fibrosarcoma + sarcoma, dosed 103 weeks, study length 104 weeks): 882 mg/kg/day
TD50 (mouse, strain B6C3F1, males, by gavage, site: skin + subcutaneous tissue, lesion: neurofibrosarcoma + fibrosarcoma + sarcoma, dosed 103 weeks, study length 104 weeks): 1210 mg/kg/day
TD50 (mouse, strain B6C3F1, males, by gavage, site: subcutaneous tissue, lesion: fibroma, dosed 103 weeks, study length 104 weeks): 1210 mg/kg/day
TD50 (mouse, strain B6C3F1, males, by gavage, site: subcutaneous tissue, lesion: fibrosarcoma + fibroma + neurofibrosarcoma + sarcoma, dosed 103 weeks, study length 104 weeks): 703 mg/kg/day
TD50 (mouse, strain B6C3F1, males, by gavage, site: subcutaneous tissue, lesion: fibrosarcoma + fibroma, dosed 103 weeks, study length 104 weeks): 654 mg/kg/day
TD50 (mouse, strain B6C3F1, males, by gavage, site: subcutaneous tissue, lesion: fibrosarcoma + neurofibrosarcoma + sarcoma, dosed 103 weeks, study length 104 weeks): 1260 mg/kg/day
TD50 (mouse, strain B6C3F1, males, by gavage, site: subcutaneous tissue, lesion: fibrosarcoma, dosed 103 weeks, study length 104 weeks): 1170 mg/kg/day
TD50 (rat, strain Fischer 344, females, by gavage, site: any site (literature study), lesion: several types, types named in the paper, dosed 103 weeks, study length 105 weeks): 16600 mg/kg/day (inactive)
TD50 (rat, strain Fischer 344, males, by gavage, site: any site (literature study), lesion: several types, types named in the paper, dosed 103 weeks, study length 105 weeks): 237 mg/kg/day
TD50 (rat, strain Fischer 344, males, by gavage, site: kidney + preputial gland, lesion: tubular-cell adenoma + tubular-cell adenocarcinoma + carcinoma, NOS, dosed 103 weeks, study length 105 weeks): 774 mg/kg/day
TD50 (rat, strain Fischer 344, males, by gavage, site: kidney, lesion: tubular-cell adenoma + tubular-cell adenocarcinoma, dosed 103 weeks, study length 105 weeks): 1210 mg/kg/day
TD50 (rat, strain Fischer 344, males, by gavage, site: liver, lesion: hepatocellular adenoma + hepatocellular carcinoma + neoplastic nodule, dosed 103 weeks, study length 105 weeks): 9080 mg/kg/day
TD50 (rat, strain Fischer 344, males, by gavage, site: preputial gland, lesion: carcinoma, NOS, dosed 103 weeks, study length 105 weeks): 2250 mg/kg/day

CC(C)N(C(=O)SCC(Cl)=CCl)C(C)C
TD50 (mouse, strain B6AKF1, females, oral dosing, site: any site (literature study), lesion: several types, types named in the paper, dosed 85 weeks, study length 85 weeks): 1990 mg/kg/day
TD50 (mouse, strain B6AKF1, females, oral dosing, site: liver, lesion: hepatoma, dosed 85 weeks, study length 85 weeks): 516 mg/kg/day
TD50 (mouse, strain B6AKF1, females, oral dosing, site: lung, lesion: adenoma, dosed 85 weeks, study length 85 weeks): 4260 mg/kg/day
TD50 (mouse, strain B6AKF1, males, oral dosing, site: any site (literature study), lesion: several types, types named in the paper, dosed 84 weeks, study length 84 weeks): 35.4 mg/kg/day
TD50 (mouse, strain B6AKF1, males, oral dosing, site: liver, lesion: hepatoma, dosed 84 weeks, study length 84 weeks): 43 mg/kg/day
TD50 (mouse, strain B6AKF1, males, oral dosing, site: lung, lesion: adenoma, dosed 84 weeks, study length 84 weeks): 243 mg/kg/day
TD50 (mouse, strain B6C3F1, females, oral dosing, site: any site (literature study), lesion: several types, types named in the paper, dosed 83 weeks, study length 83 weeks): 90.8 mg/kg/day
TD50 (mouse, strain B6C3F1, females, oral dosing, site: liver, lesion: several types, types named in the paper, dosed 83 weeks, study length 83 weeks): 164 mg/kg/day
TD50 (mouse, strain B6C3F1, females, oral dosing, site: lung, lesion: adenoma, dosed 83 weeks, study length 83 weeks): 255 mg/kg/day
TD50 (mouse, strain B6C3F1, males, oral dosing, site: any site (literature study), lesion: several types, types named in the paper, dosed 84 weeks, study length 84 weeks): 15.6 mg/kg/day
TD50 (mouse, strain B6C3F1, males, oral dosing, site: liver, lesion: hepatoma, dosed 84 weeks, study length 84 weeks): 19.4 mg/kg/day
TD50 (mouse, strain B6C3F1, males, oral dosing, site: lung, lesion: adenoma, dosed 84 weeks, study length 84 weeks): 113 mg/kg/day

CCOC(=O)/C=C\C(=O)OCC
carcinogen call (rat, strain F344/DuCrj, males, in feed, site: forestomach, lesion: one or several types, types not named, dosed 51 weeks, study length 52 weeks): negative (inactive)
TD50 (rat, strain F344/DuCrj, males, in feed, site: forestomach, lesion: squamous-cell papilloma, dosed 104 weeks, study length 104 weeks): 1070 mg/kg/day
carcinogen call (rat, strain F344/DuCrj, males, in feed, site: stomach, glandular, lesion: one or several types, types not named, dosed 51 weeks, study length 52 weeks): negative (inactive)
